# Experimental data from ChEMBL document CHEMBL1151341, “Constituents of Nealchornea yapurenis (Euophorbiaceae)” (J Nat Prod, 1980).
# Calls of active or inactive are those of the source. No cut-off for these calls is given here.
# Tested on: P388
# Assay: Antitumor activity against mouse P388 cells xenografted in mouse at 50 to 400 mg/kg
# Format: functional, organism-based
row,Structure (SMILES),Activity
1,CC[C@H](CC[C@@H](C)[C@H]1CC[C@H]2[C@@H]3CC=C4C[C@@H](O)CC[C@]4(C)[C@H]3CC[C@]12C)C(C)C,inactive
2,CC[C@H](CC[C@@H](C)[C@H]1CC[C@H]2[C@@H]3CC=C4C[C@@H](O[C@@H]5O[C@H](CO)[C@@H](O)[C@H](O)[C@H]5O)CC[C@]4(C)[C@H]3CC[C@]12C)C(C)C,inactive
3,COc1cc2ccc(=O)oc2cc1O,inactive
4,CCCCCCCCCCCCCCCCCCCCCCCCCC(=O)O,inactive
